Experimental data taken from PMC7539012, “Hyperphosphorylated tau aggregation and cytotoxicity modulators screen identified prescription drugs linked to Alzheimer's disease and cognitive functions” (Scientific Reports, 2020).
Counter-ions that a name gives are not always drawn.

Test system: T1, 1N4R p-tau
T1 construct: made in house; host or cells: E. coli (PIMAX system)
Assay: p-tau aggregation modulator screen of 1280-compound library (ThS fluorescence net change over 16 h);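 as to ThS net change: 30 µM compound with 6 µM p-tau over 16 h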
Type: biochemical
Parameters: key to PTAI>2SD: *: PTAI>2SD
Conditions: not given

Compound | ThS net change
O=C1c2c(O)ccc(O)c2C(=O)c2c(NCCNCCO)ccc(NCCNCCO)c21 [Mitoxantrone dihydrochloride] | 328
NC(=O)C[S+]([O-])C(c1ccccc1)c1ccccc1 (stereo not drawn) [Modafinil] | 413
C[C@]12CC[C@H]3[C@@H](CCC4=CC(=O)CC[C@@H]43)[C@@H]1CC[C@@H]2O [Nandrolone] | 479
CNCCC(Oc1ccccc1OC)c1ccccc1 (stereo not drawn) [Nisoxetine hydrochloride] | 364
CCN(CC)CCOC(=O)C1(c2ccc([N+](=O)[O-])cc2)CCCC1.Cl [Nitrocaramiphen hydrochloride] | 435

Same assay, conditions: 1280-compound library screen; ThS fluorescence net change over 16 h

Compound | ThS net change
CN(c1nccc(=O)[nH]1)C1CCN(c2nc3ccccc3n2Cc2ccc(F)cc2)CC1 [Mizolastine] | 390
O=C(NCCN1CCOCC1)c1ccc(Cl)cc1 [Moclobemide] | 393
Oc1ccc(OCc2ccccc2)cc1 [Monobenzone] | 382
Cl.N=C(N)NC(=N)N1CCOCC1 [Moroxidine hydrochloride] | 379
COc1c(N2C[C@@H]3CCCN[C@@H]3C2)c(F)cc2c(=O)c(C(=O)O)cn(C3CC3)c12 [Moxifloxacin] | 413
CC1CCc2c(N3CCC(O)CC3)c(F)cc3c(=O)c(C(=O)O)cn1c23 (stereo not drawn) [Nadifloxacin] | 399
CC(C)(C)NCC(O)COc1cccc2c1CC(O)C(O)C2 (stereo not drawn) [Nadolol] | 411
O=C(O)c1cccnc1 [Niacin] | 391
NC(=O)c1cccnc1 [Nicotinamide] | 406
Cc1c(NC(=O)c2cccnc2)c(=O)n(-c2ccccc2)n1C [Nifenazone] | 380
O=C(N/N=C/c1ccc([N+](=O)[O-])o1)c1ccc(O)cc1 [Nifuroxazide] | 402
O=C1NCCN1c1ncc([N+](=O)[O-])s1 [Niridazole] | 399
COC(=O)Nc1nc2ccc(C(=O)c3cccs3)cc2[nH]1 [Nocodazole] | 409

Same assay, conditions: 1280-compound library screen; […]

Compound | ThS net change
Cc1ccsc1/C=C/C1=NCCCN1C [Morantel tartrate] | 398
Cl.O.O.O=C1CC[C@@]2(O)[C@H]3Cc4ccc(O)c5c4[C@@]2(CCN3CC2CC2)[C@H]1O5 [Naltrexone hydrochloride dihydrate] | 408
CN(C)C(=O)Oc1cccc([N+](C)(C)C)c1 [Neostigmine bromide] | 409

Same assay, conditions: flag: p-tau aggregation inhibitor, ThS net change more than 2 SD from mean

Compound | PTAI>2SD
CN(C)c1ccc(O)c2c1C[C@H]1C[C@H]3[C@H](N(C)C)C(O)=C(C(N)=O)C(=O)[C@@]3(O)C(O)=C1C2=O [Minocycline hydrochloride] | *

Same assay, conditions: library screen, ThS fluorescence net change over 16 h with p-tau

Compound | ThS net change
CN(C)c1ccc(O)c2c1C[C@H]1C[C@H]3[C@H](N(C)C)C(O)=C(C(N)=O)C(=O)[C@@]3(O)C(O)=C1C2=O [Minocycline hydrochloride] | 121
CCOc1ccc2ccccc2c1C(=O)N[C@@H]1C(=O)N2[C@@H]1SC(C)(C)[C@@H]2C(=O)O [Nafcillin sodium salt monohydrate] | 317
CCN(CC)CCOC(=O)C(Cc1cccc2ccccc12)CC1CCCO1 (stereo not drawn) [Nafronyl oxalate] | 324
CN1CCOC(c2ccccc2)c2ccccc2C1 (stereo not drawn) [Nefopam hydrochloride] | 324
CO[C@]12C[C@@H](COC(=O)c3cncc(Br)c3)CN(C)[C@@H]1Cc1cn(C)c3cccc2c13 [Nicergoline] | 260
O=C(Nc1ccc([N+](=O)[O-])cc1Cl)c1cc(Cl)ccc1O [Niclosamide] | 199
COC(=O)C1=C(C#N)NC(C)=C(C(=O)OC(C)C)C1c1cccc([N+](=O)[O-])c1 (stereo not drawn) [Nilvadipine] | 266
CS(=O)(=O)Nc1ccc([N+](=O)[O-])cc1Oc1ccccc1 [Nimesulide] | 288
CC(=O)Oc1ccccc1C(=O)Nc1ncc([N+](=O)[O-])s1 [Nitazoxanide] | 198
O=C1CN(/N=C/c2ccc([N+](=O)[O-])o2)C(=O)N1 [Nitrofurantoin] | 303

Same assay, conditions: p-tau aggregation modulator screen of 1280-compound library; ThS fluorescence net change

Compound | ThS net change
CC(=O)Oc1cc(C(C)C)c(OCCN(C)C)cc1C.Cl [Moxisylyte hydrochoride] | 358
COc1ccc2cc(CCC(C)=O)ccc2c1 [Nabumetone] | 357
NC(=O)c1ccc[n+]([C@@H]2O[C@H](COP(=O)([O-])OP(=O)(O)OC[C@H]3O[C@@H](n4cnc5c(N)ncnc54)[C@H](O)[C@@H]3O)[C@@H](O)[C@H]2O)c1 [Nadide] | 366
C=CCN1CC[C@]23c4c5ccc(O)c4O[C@H]2C(=O)CC[C@@]3(O)[C@H]1C5 [Naloxone hydrochloride] | 349
c1ccc2c(CC3=NCCN3)cccc2c1 [Naphazoline hydrochloride] | 361
COc1ccc2cc([C@H](C)C(=O)O)ccc2c1 [Naproxen] | 371
NC[C@@H]1O[C@H](O[C@H]2[C@@H](O)[C@H](O[C@@H]3[C@@H](O)[C@H](N)C[C@H](N)[C@H]3O[C@H]3O[C@H](CN)[C@@H](O)[C@H](O)[C@H]3N)O[C@@H]2CO)[C@H](N)[C@@H](O)[C@@H]1O.O=S(=O)(O)O [Neomycin sulfate] | 340
COC(=O)C1=C(C)NC(C)=C(C(=O)OCCN(C)Cc2ccccc2)C1c1cccc([N+](=O)[O-])c1 (stereo not drawn) [Nicardipine hydrochloride] | 330
O=C(NCCO[N+](=O)[O-])c1cccnc1 [Nicorandil] | 376
O=C(O)c1cccnc1Nc1cccc(C(F)(F)F)c1 [Niflumic acid] | 340
CC1(C)NC(=O)N(c2ccc([N+](=O)[O-])c(C(F)(F)F)c2)C1=O [Nilutamide] | 363
COCCOC(=O)C1=C(C)NC(C)=C(C(=O)OC(C)C)C1c1cccc([N+](=O)[O-])c1 (stereo not drawn) [Nimodipine] | 343
CCOC(=O)C1=C(C)NC(C)=C(C(=O)OC)C1c1cccc([N+](=O)[O-])c1 (stereo not drawn) [Nitrendipine] | 344
NC(=O)N/N=C/c1ccc([N+](=O)[O-])o1 [Nitrofural] | 365
CNC(=C[N+](=O)[O-])NCCSCc1csc(CN(C)C)n1 [Nizatidine] | 334
CNCCC=C1c2ccccc2C=Cc2ccccc21 [Norcyclobenzaprine] | 372
C#C[C@]1(O)CC[C@H]2[C@@H]3CCC4=CC(=O)CC[C@@H]4[C@H]3CC[C@@]21C [Norethindrone] | 356
C#C[C@]1(O)CC[C@H]2[C@@H]3CCC4=C(CCC(=O)C4)[C@H]3CC[C@@]21C [Norethynodrel] | 341

Same assay, conditions: p-tau aggregation modulator screen of 1280-compound library; […]

Compound | ThS net change
CC[C@@]1([C@@H]2O[C@@H]([C@H]3O[C@@](O)(CO)[C@H](C)C[C@@H]3C)C[C@@H]2C)CC[C@H]([C@]2(C)CC[C@]3(C[C@H](O)[C@@H](C)[C@@H]([C@@H](C)[C@@H](OC)[C@H](C)C(=O)[O-])O3)O2)O1.[Na+] [Monensin sodium salt] | 342
Oc1ccc2c3c1O[C@H]1[C@@H](O)CC[C@@]4(O)[C@@H](C2)N(CC2CCC2)CC[C@]314 [Nalbuphine hydrochloride] | 371
CCn1cc(C(=O)[O-])c(=O)c2ccc(C)nc21.[Na+] [Nalidixic acid sodium salt] | 339
CN1Cc2c(N)cccc2C(c2ccccc2)C1 (stereo not drawn) [Nomifensine maleate] | 340

Same assay, conditions: p-tau aggregation modulator screen of the compound library, ThS fluorescence net change

Compound | ThS net change
CN1CCN2c3ncccc3Cc3ccccc3C2C1 (stereo not drawn) [Mirtazapine] | 534
Clc1ccc(C(c2ccccc2Cl)C(Cl)Cl)cc1 (stereo not drawn) [Mitotane] | 449
CCc1c(C)[nH]c2c1C(=O)C(CN1CCOCC1)CC2 (stereo not drawn) [Molindone hydrochloride] | 458
C[C@@H]1C[C@H]2[C@@H]3CCC4=CC(=O)C=C[C@]4(C)[C@@]3(Cl)[C@@H](O)C[C@]2(C)[C@@]1(OC(=O)c1ccco1)C(=O)CCl [Mometasone furoate] | 484
CC(C)(O)c1ccccc1CC[C@@H](SCC1(CC(=O)O)CC1)c1cccc(/C=C/c2ccc3ccc(Cl)cc3n2)c1 [Montelukast] | 592
CCOC(=O)Nc1ccc2c(c1)N(C(=O)CCN1CCOCC1)c1ccccc1S2 [Moricizine hydrochloride] | 473
CO[C@@]1(NC(=O)C(C(=O)O)c2ccc(O)cc2)C(=O)N2C(C(=O)O)=C(CSc3nnnn3C)CO[C@@H]21 (stereo partly drawn) [Moxalactam disodium salt] | 419
COc1nc(C)nc(Cl)c1N=C1NCCN1 [Moxonidine] | 433
CNc1ncnc2c1ncn2[C@@H]1O[C@H](CO)[C@@H](O)[C@H]1O [N6-methyladenosine] | 416
CC(=O)N[C@@H](CC(C)C)C(=O)O [N-Acetyl-L-leucine] | 417
CN(C/C=C/c1ccccc1)Cc1cccc2ccccc12 [Naftifine hydrochloride] | 539
COc1ccccc1N1CCN(CC(O)COc2cccc3ccccc23)CC1.Cl.Cl (stereo not drawn) [Naftopidil dihydrochloride] | 453
C=C1CC[C@@]2(O)[C@H]3Cc4ccc(O)c5c4[C@@]2(CCN3CC2CC2)[C@H]1O5 [Nalmefene hydrochloride] | 418
CC(C)[C@H]1CC[C@H](C(=O)N[C@H](Cc2ccccc2)C(=O)O)CC1 [Nateglinide] | 413
CCc1nn(CCCN2CCN(c3cccc(Cl)c3)CC2)c(=O)n1CCOc1ccccc1 [Nefazodone HCl] | 454
Cc1c(O)cccc1C(=O)N[C@@H](CSc1ccccc1)[C@H](O)CN1C[C@H]2CCCC[C@H]2C[C@H]1C(=O)NC(C)(C)C [Nelfinavir mesylate] | 563
Cc1ccnc2c1NC(=O)c1cccnc1N2C1CC1 [Nevirapine] | 427
O=C(CCNNC(=O)c1ccncc1)NCc1ccccc1 [Nialamide] | 470
Cn1c(NCCN(CCO)CCCc2ccc([N+](=O)[O-])cc2)cc(=O)n(C)c1=O [Nifekalant] | 438
CC1CS(=O)(=O)CCN1/N=C/c1ccc([N+](=O)[O-])o1 (stereo not drawn) [Nifurtimox] | 588
CC(=O)O[C@]1(C(C)=O)CC[C@H]2[C@@H]3C=C(C)C4=CC(=O)CC[C@@H]4[C@H]3CC[C@@]21C [Nomegestrol acetate] | 463
